Tests used:
[1] = Phase 1/2a study: plasma pharmacokinetics; type: in vivo, human; conditions: cohort 3 (720 mg), patient 08-1301, all values
Method: (§1) Formulations and dosing regimen: The formulation used in the study (abiraterone decanoate for intramuscular [i.m.] injection) is a solution formulation of abiraterone decanoate at a concentration of 180 mg/mL and will be provided as a 10 mL vial containing 990 mg of abiraterone decanoate in 5.5 mL of solution. See further details of the formulations in Example 2 (for each milliliter: Abiraterone Decanoate, about 180 mg/mL; Benzyl Alcohol, about 100 mg/mL; Benzyl Benzoate, about 200 mg/mL; and Corn oil, q.s. to 1 mL). Abiraterone Decanoate will be administered as an i.m. injection every 84 days (±3 days). Dose escalation will proceed with a modified Fibonacci sequence. Based on emerging data, intermediate doses may be evaluated.
Pharmacokinetic results: the partial results from pharmacokinetic analysis for cohorts 1, 2, 3, 4, and 5 (180 mg, 360 mg, 720 mg, 1260 mg, and 1800 mg abiraterone decanoate, respectively) are shown in FIGS. 4A-4E. […] And for abiraterone decanoate, minimal increase in AbiDec for 08-1301 was observed which declined to 0 ng/ml thereafter.

[2] = Animal studies of intramuscular abiraterone decanoate: liver toxicity; type: in vivo; conditions: intramuscular administration, tested doses
[3] = Phase 1/2a study: safety and tolerability; type: in vivo, human
Excerpt: At each dose cohort, 3 to 4 patients will be enrolled. If none of the patients experience a dose-limiting toxicity (DLT) in the first 28 days (the DLT period) the dose will be escalated in the next cohort. A DLT will be defined as any of the following using on the Common Terminology Criteria for Adverse Events (CTCAE) criteria v5.0 regardless of attribution to the study drug unless it is clearly due to the patient's underlying disease or extraneous causes:
Safety Analysis: Adverse events will be summarized by severity, seriousness, and relationship to study treatments. Laboratory data, vital signs, PFTs and ECGs will be compared to baseline values.

[4] = test system: serum corticosterone; assay: Phase 1/2a study: serum corticosterone; type: in vivo, human
Method: (§2) This is a Phase 1/2a, Open-label, Multicenter Study of Intramuscular Abiraterone Decanoate Depot in Patients with Advanced Prostate Cancer.
as §1
(§3) Study Design: This is a Phase 1/2a, Open-label, Multicenter Study of Intramuscular Abiraterone Decanoate Depot in Patients with Advanced Prostate Cancer. In Phase 1, all patients will receive i.m. Abiraterone Decanoate depot in 84-day treatment cycles combined with daily oral prednisone or dexamethasone. In Phase 2a, patients will be randomized 1:1 and treated with i.m. Abiraterone Decanoate depot in 84-day treatment cycles in combination with dexamethasone (Arm A) or abiraterone acetate daily+prednisone (Arm B). In both Phases, patients will undergo scheduled periodic assessments of serum testosterone levels. Participants may continue treatment until they meet any discontinuation criteria outlined in the protocol.
(§4) Pharmacodynamic Analysis: Determination of Prostate Specific Antigen (PSA), serum testosterone, dehydroepiandrosterone (DHEA), dehydroepiandrosterone sulfate (DHEA-S), androstenedione, dihydrotestosterone (DHT), progesterone, cortisol, adrenocorticotropic hormone (ACTH), corticosterone, 11-dexoycorticosterone (11-DOC) and 11-deoxycortisol.
(§5) Based on the available data, the recommended dose for Phase 2 is about 1260 mg abiraterone decanoate once every three months (12 weeks). All cohorts 1 and 2 in this clinical study were treated with prednisone, 5 mg orally once or twice daily; and all cohorts 3-5 were treated with dexamethasone, 0.5 mg orally once daily. The results shown herein for these cohorts should be understood accordingly.
See also Table 3B below. […] See also FIG. 11B for the absolute serum progesterone levels for cohorts 4 and 5, with the LLOQ being 1.59 nM. It should be noted that the maximum serum progesterone level observed for cohorts 1-3 is 2.5 nM. FIGS. 3F and 3G show the serum 11-deoxycorticosterone and corticosterone response in cohorts 3, 4, and 5, the trend is similar to that observed for progesterone levels above. See a summary shown in the Table 3C below for the first cycle.

[5] = test system: Prostate Specific Antigen (PSA); assay: Phase 1/2a study: PSA response; type: in vivo, human; conditions: for Undetectable PSA: defined as PSA < 0.2 ng/mL
Method: as §2, §1, §3, §4, §5
PSA Levels: the median baseline PSA level was 3.01 ng/mL. […] The table below further summarizes the reduction of PSA observed without elevated progesterone level.

[6] = test system: serum DHEA-S, DHEA, androstenedione; assay: Phase 1/2a study: serum DHEA-S, DHEA, androstenedione; type: in vivo, human
Excerpt: as §4

plasma abiraterone values [1]: below the LLOQ
Compound: CCCCCCCCCC(=O)O[C@H]1CC[C@@]2(C)C(=CC[C@@H]3[C@@H]2CC[C@]2(C)C(c4cccnc4)=CC[C@@H]32)C1 [abiraterone decanoate]
liver toxicity [2]: no liver toxicity was observed
increases in upstream steroids from CYP17A1 hydroxylase, compared with Zytiga ([3]; Phase 1 study): far less than observed with Zytiga
safety issues relating to mineralocorticoid excess ([3]; Phase 1 study, to date): no safety issues relating to mineralocorticoid excess
safety profile ([3]; all cohorts 1-5): excellent
tolerability in human subjects ([3]; in vivo): generally well tolerated
Corticosterone Changes during cycle 1, Percent (%) ([4]; 720 mg (N = 4), Day 14): 48%
Corticosterone Changes during cycle 1, Percent (%) ([4]; 720 mg (N = 4), Day 28): 27%
Corticosterone Changes during cycle 1, Percent (%) ([4]; 720 mg (N = 4), Day 56): 9%
Corticosterone Changes during cycle 1, Percent (%) ([4]; 720 mg (N = 4), Day 84): −33%
Corticosterone Changes during cycle 1, Percent (%) ([4]; 1,260 mg (N = 6), Day 14): 184%
Corticosterone Changes during cycle 1, Percent (%) ([4]; 1,260 mg (N = 6), Day 28): 490%
Corticosterone Changes during cycle 1, Percent (%) ([4]; 1,260 mg (N = 6), Day 56): 19%
Corticosterone Changes during cycle 1, Percent (%) ([4]; 1,260 mg (N = 6), Day 84): 32%
Corticosterone Changes during cycle 1, Percent (%) ([4]; 1,800 mg (N = 8), Day 14): 455%
Corticosterone Changes during cycle 1, Percent (%) ([4]; 1,800 mg (N = 8), Day 28): 259%
Corticosterone Changes during cycle 1, Percent (%) ([4]; 1,800 mg (N = 8), Day 56): 54%
Corticosterone Changes during cycle 1, Percent (%) ([4]; 1,800 mg (N = 8), Day 84): 109%
percentages of patients achieving PSA50 and 90 versus those reported for abiraterone acetate (AA) and enzalutamide (Enza) ([5]; Chemo-naïve CRPC, FIGS. 9A and 9B): much higher
PSA at follow-up ([5]; Patient 1, 180 mg, CSPC, enzalutamide started after study): below LLOQ
patients with PSA50 ([5]; cohorts 3, 4, and 5): 15 out of 16
patients with PSA90 ([5]; cohorts 3, 4, and 5): 8 out of 16
Best PSA Response ([5]; patient 02-1403, Cohort 4, 1260 mg, mCRPC, Visit C4D28): −98%
Undetectable PSA ([5]; patient 02-1403, Cohort 4, 1260 mg, mCRPC): No
Best PSA Response ([5]; patient 02-1405, Cohort 4, 1260 mg, mCRPC, Visit C1D56): −94%
Undetectable PSA ([5]; patient 02-1405, Cohort 4, 1260 mg, mCRPC): No
Best PSA Response ([5]; patient 02-1504, Cohort 5, 1800 mg, mCRPC, Visit C1D28): −92.4
Undetectable PSA ([5]; patient 02-1504, Cohort 5, 1800 mg, mCRPC): No
Best PSA Response ([5]; patient 02-1505, Cohort 5, 1800 mg, mCSPC, Visit C1D84): −98%
Undetectable PSA ([5]; patient 02-1505, Cohort 5, 1800 mg, mCSPC): No
Best PSA Response ([5]; patient 04-1406, Cohort 4, 1260 mg, mCSPC, Visit C1D56): −82%
Undetectable PSA ([5]; patient 04-1406, Cohort 4, 1260 mg, mCSPC): No
Best PSA Response ([5]; patient 04-1503, Cohort 5, 1800 mg, mCSPC, Visit C1D84): −67%
Undetectable PSA ([5]; patient 04-1503, Cohort 5, 1800 mg, mCSPC): Yes
Best PSA Response ([5]; patient 04-1506, Cohort 5, 1800 mg, mCRPC, Visit C1D28): −54%
Undetectable PSA ([5]; patient 04-1506, Cohort 5, 1800 mg, mCRPC): No
Best PSA Response ([5]; patient 06-1401, Cohort 4, 1260 mg, mCRPC, Visit C3D84): −99.97%
Undetectable PSA ([5]; patient 06-1401, Cohort 4, 1260 mg, mCRPC): Yes
Best PSA Response ([5]; patient 06-1402, Cohort 4, 1260 mg, mCRPC, Visit C4D28): −93%
Undetectable PSA ([5]; patient 06-1402, Cohort 4, 1260 mg, mCRPC): No
Best PSA Response ([5]; patient 06-1404, Cohort 4, 1260 mg, mCSPC, Visit C2D84): −67%
Undetectable PSA ([5]; patient 06-1404, Cohort 4, 1260 mg, mCSPC): Yes
Best PSA Response ([5]; patient 06-1501, Cohort 5, 1800 mg, mCRPC, Visit C1D84): 48%
Undetectable PSA ([5]; patient 06-1501, Cohort 5, 1800 mg, mCRPC): No
Best PSA Response ([5]; patient 06-1502, Cohort 5, 1800 mg, mCSPC, Visit C2D84): −99.6%^
Undetectable PSA ([5]; patient 06-1502, Cohort 5, 1800 mg, mCSPC): Yes
serum DHEA-S level vs baseline ([6]; cohorts 1-5, FIG. 3B): significantly reduced
serum DHEA level vs baseline ([6]; cohorts 1-5, FIG. 3C): significantly reduced
serum androstenedione level vs baseline ([6]; cohorts 1-5, FIG. 3D): significantly reduced
